Laboratory results published in patent publication US20210330611A1, “THERAPY FOR NEUROLOGICAL DISEASES/DISORDERS” (priority 2020, published 2021).
Structures can show the parent of a compound that is named as a salt. Where two headings read alike, the source gives them in different places. Where a SMILES comes first, the peptide text is derived from it. [ ]: non-standard residue; d: D form. pGlu = O=C1CC[C@@H](C(=O)O)N1; Thz = O=C(O)[C@@H]1CSCN1

Legend:
[1] = test system: LPS-induced microglia activation; assay: Image-based assay of LPS-induced microglia activation (HTS and dose response); assay type: cell-based, rat; details: for inhibition at 10 µM: Rattus norvegicus, Microglia, read-out: LPS % inhibition
primary rat microglia [2] = assay: Cell toxicity (dead cells, size <150 μm2) in coated fibrin (cFib) assay; details: primary microglia HTS;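 note: share of dead cells sized under 150 µm2 at 10 µM in fibrin-stimulated microglia HTS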
[3] = test system: fibrin- and LPS-induced microglia activation; assay: cells; assay type: cell-based, rat
[4] = test system: fibrin-induced microglia activation; assay: Image-based assay of fibrin-induced microglia activation (HTS and dose response); assay type: cell-based, rat; details: primary microglia HTS, fibrin stimulation; for inhibition at 10 µM: Rattus norvegicus, Microglia, read-out: Fibrin % inhibition
primary rat microglia [5] = test system: primary rat microglia
[6] = fibrin stimulation, cell size <150 μm2 as marker of toxicity
[7] = classification by fibrin and LPS inhibition in HTS
[8] = cell size >800 μm2 as marker of activation
[9] = primary microglia HTS, LPS stimulation, compounds at 10 μM
[10] = fibrin assay, dead cells (size <150 μm2), compounds at 10 μM
[11] = classification by fibrin and LPS inhibition, HTS at 10 μM
[12] = fibrin assay, dead cells (size <150 μm2)
[13] = quadrant by fibrin and LPS inhibition, HTS at 10 μM

Row | Molecule | inhibition at 10 µM ([1]; 48 h) [%] | Fibrin % cell toxicity (primary rat microglia [2]; [6]) [%] | Quadrant (FIG. 5b) [3, 7] | inhibition at 10 µM [4, 8] [%] | LPS % cell toxicity (primary rat microglia [5]; rat) [%] | inhibition at 10 µM [1, 9] [%] | inhibition at 10 µM ([4]; compounds at 10 μM) [%] | Fibrin % cell toxicity (primary rat microglia [2]; [12]) [%] | Quadrant (FIG. 5b) [3, 13] | further results
1 | Cc1ncc([N+](=O)[O-])n1CC(C)O (stereo not shown) [Secnidazole] | 22 | 1 | Q4 | -24 | 2 | – | – | – | – | –
2 | NC(=O)OCC(COC(N)=O)c1ccccc1 [Felbamate] | – | – | – | – | 0 | 0 | -32 | – | – | Fibrin % cell toxicity (primary rat microglia [2]; [10]): 1%; Quadrant (FIG. 5b) [3, 11]: Q4
3 | CC1(C)S[C@@H]2[C@H](NC(=O)[C@H](N)c3ccccc3)C(=O)N2[C@H]1C(=O)O [Ampicillin] | – | – | – | – | 0 | 15 | 1 | 1 | Q4 | –
4 | O=C(O)c1cn(-c2ccc(F)cc2)c2cc(N3CCNCC3)c(F)cc2c1=O [Sarafloxacin] | 4 | 0 | Q4 | 2 | 0 | – | – | – | – | –
5 | C#C[C@]1(O)CC[C@H]2[C@@H]3CCc4cc(OC5CCCC5)ccc4[C@H]3CC[C@@]21C [Quinestrol] | 24 | 0 | Q4 | 15 | 0 | – | – | – | – | –
6 | CC(=O)OCC(=O)NCCCOc1cccc(CN2CCCCC2)c1 [Roxatidine acetate] | 6 | 1 | Q4 | 22 | 0 | – | – | – | – | –
7 | CC(=O)NCCCS(=O)(=O)[O-].CC(=O)NCCCS(=O)(=O)[O-].[Ca+2] [Acamprosate Calcium] | – | – | – | – | – | – | – | 1 | Q4 | LPS % inhibition [1, 9]: 22%; Fibrin % inhibition ([4]; compounds at 10 μM): 12%; LPS % cell toxicity (primary rat microglia [5]): 0%
8 | Nc1ccc(C(=O)NCC(=O)O)cc1 [Aminohippuric Acid] | – | – | – | – | 1 | 16 | -7 | 1 | Q4 | –
9 | O=C1c2c(O)cccc2C([C@@H]2O[C@H](CO)[C@@H](O)[C@H](O)[C@H]2O)c2cc(CO)cc(O)c21 (stereo partly shown) [Aloin] | – | – | – | – | 0 | 14 | -35 | 1 | Q4 | –
10 | Cc1cc(=O)n(-c2ccccc2)n1C [Antipyrine] | – | – | – | – | 1 | 13 | -8 | 0 | Q4 | –
11 | CC[C@H]1OC(=O)[C@H](C)[C@@H](O[C@H]2C[C@@](C)(OC)[C@@H](O)[C@H](C)O2)[C@H](C)[C@@H](O[C@@H]2O[C@H](C)C[C@H](N(C)C)[C@H]2O)[C@](C)(O)C[C@@H](C)/C(=N\OCOCCOC)[C@H](C)[C@@H](O)[C@]1(C)O [Roxithromycin] | 17 | 0 | Q4 | -4 | 1 | – | – | – | – | –
12 | Cyanocobalamin | – | – | – | – | – | – | – | – | – | LPS % inhibition [1, 9]: 11%; Fibrin % cell toxicity (primary rat microglia [2]; [10]): 1%; Quadrant (FIG. 5b) [3, 11]: Q4; Fibrin % inhibition ([4]; compounds at 10 μM): −1%; LPS % cell toxicity (primary rat microglia [5]): 0%
13 | O=C1CC[C@@H](C(=O)N2CSC[C@H]2C(=O)O)N1 [Pidotimod] ([pGlu]-[Thz]-OH) | 14 | 1 | Q4 | -10 | 0 | – | – | – | – | –
14 | COc1ccc(C2C(=O)c3ccccc3C2=O)cc1 [Anisindione] | – | – | – | – | 0 | 13 | -15 | 0 | Q4 | –
15 | N[C@@H](COP(=O)(O)O)C(=O)O [Phosphonoserine] | 10 | 1 | Q4 | -6 | 0 | – | – | – | – | –
16 | CCc1nc(N)nc(N)c1-c1ccc(Cl)cc1 [Pyrimethamine] | 12 | 1 | Q4 | -11 | 1 | – | – | – | – | –
17 | CCCCC(CC)COC(=O)CC(C(=O)OCC(CC)CCCC)S(=O)(=O)[O-].[Na+] (stereo not shown) [Docusate Sodium] | – | – | – | – | – | – | – | – | – | LPS % inhibition [1, 9]: −4%; Fibrin % cell toxicity (primary rat microglia [2]; [10]): 0%; Quadrant (FIG. 5b) [3, 11]: Q4; Fibrin % inhibition ([4]; compounds at 10 μM): −39%; LPS % cell toxicity (primary rat microglia [5]): 0%
18 | N#CC(c1ccc(Cl)cc1)c1c(Cl)cc(-n2ncc(=O)[nH]c2=O)cc1Cl (stereo not shown) [Diclazuril] | – | – | – | – | 0 | 21 | 48 | – | – | Fibrin % cell toxicity (primary rat microglia [2]; [10]): 1%; Quadrant (FIG. 5b) [3, 11]: Q4

Row | Molecule | inhibition at 10 µM ([1]; 48 h) [%] | Fibrin % cell toxicity (primary rat microglia [2]; [6]) [%] | Quadrant (FIG. 5b) [3, 7] | inhibition at 10 µM [4, 8] [%] | LPS % cell toxicity (primary rat microglia [5]; rat) [%] | inhibition at 10 µM [1, 9] [%] | inhibition at 10 µM ([4]; compounds at 10 μM) [%] | Fibrin % cell toxicity (primary rat microglia [2]; [12]) [%] | Quadrant (FIG. 5b) [3, 13] | further results
19 | CCOC(N)=O [Ethyl carbamate] | – | – | – | – | 0 | 27 | 44 | – | – | Fibrin % cell toxicity (primary rat microglia [2]; [10]): 1%; Quadrant (FIG. 5b) [3, 11]: Q4
20 | C[C@]12CC[C@@H]3c4ccc(OC(=O)c5ccccc5)cc4CC[C@H]3[C@@H]1CC[C@@H]2O [Estradiol Benzoate] | – | – | – | – | 0 | 8 | -3 | – | – | Fibrin % cell toxicity (primary rat microglia [2]; [10]): 1%; Quadrant (FIG. 5b) [3, 11]: Q4
21 | Nc1ncnc2nc[nH]c12 [Adenine] | – | – | – | – | 1 | 22 | -7 | 1 | Q4 | –
22 | C=C1/C(=C\C=C2/CCC[C@]3(C)[C@@H]([C@H](C)CCCC(C)C)CC[C@@H]23)C[C@@H](O)C[C@@H]1O [Alfacalcidol] | – | – | – | – | 0 | 4 | -26 | 1 | Q4 | –
23 | Cc1cnc(C(=O)O)c[n+]1[O-] [Acipimox] | – | – | – | – | 0 | 20 | -11 | 1 | Q4 | –
24 | CC[C@@H]1C(=O)OC[C@@H]1Cc1cncn1C [Pilocarpine] | 14 | 1 | Q4 | -2 | 0 | – | – | – | – | –
25 | OC(CCN1CCCC1)(c1ccccc1)C1CCCCC1 (stereo not shown) [Procyclidine] | 26 | 1 | Q4 | 0 | 1 | – | – | – | – | –
26 | O=C1CC[C@@]2(O)[C@H]3Cc4ccc(O)c5c4[C@@]2(CCN3CC2CC2)[C@H]1O5 [Naltrexone Hydrochloride] | – | – | – | – | 2 | 79 | 107 | 4 | Q2 | –
27 | FCOC(C(F)(F)F)C(F)(F)F [Sevoflurane] | 17 | 1 | Q4 | -1 | 1 | – | – | – | – | –
28 | C=C(NC(=O)C(=C)NC(=O)c1csc(C2=N[C@@H]3c4csc(n4)[C@H]4NC(=O)c5csc(n5)[C@H]([C@](C)(O)[C@@H](C)O)NC(=O)[C@H]5CSC(=N5)/C(=C/C)NC(=O)[C@H]([C@@H](C)O)NC(=O)c5csc(n5)[C@]3(CC2)NC(=O)[C@H](C)NC(=O)C(=C)NC(=O)[C@H](C)NC(=O)[C@H]([C@@H](C)CC)N[C@@H]2C=Cc3c([C@H](C)O)cc(nc3[C@H]2O)C(=O)O[C@@H]4C)n1)C(N)=O [Thiostrepton] | – | – | – | – | 1 | 65 | 109 | 64 | Q2 | –
29 | CC(=O)Nc1cc([As](=O)(O)O)ccc1O [Acetarsol] | – | – | – | – | 0 | 13 | -12 | 0 | Q4 | –
30 | CCCCC[C@H](O)/C=C/[C@@H]1[C@@H](C/C=C\CCCC(=O)O)[C@@H](O)C[C@H]1O [Dinoprost Tromethamine] | – | – | – | – | 0 | 15 | 36 | – | – | Fibrin % cell toxicity (primary rat microglia [2]; [10]): 1%; Quadrant (FIG. 5b) [3, 11]: Q4
31 | CCC(=O)O[C@](Cc1ccccc1)(c1ccccc1)[C@H](C)CN(C)C [Dextropropoxyphene] | – | – | – | – | 0 | 15 | -25 | – | – | Fibrin % cell toxicity (primary rat microglia [2]; [10]): 1%; Quadrant (FIG. 5b) [3, 11]: Q4
32 | O=C(O)/C=C\C(=O)O.O=C(O)/C=C\C(=O)O.c1ccc2nc(N3CCNCC3)ccc2c1 [Quipazine Dimaleate, Quipazine Maleate] | – | 1 | Q4 | – | – | – | – | – | – | LPS % inhibition [1]: 9%; Fibrin % inhibition [4, 8]: −18%; LPS % cell toxicity (primary rat microglia [5]): 0%
33 | O=C(N/N=C/c1ccc([N+](=O)[O-])o1)c1ccc(O)cc1 [Nifuroxazide] | – | – | – | – | 14 | 120 | 112 | 6 | Q2 | –
34 | CC(C)Nc1cccnc1N1CCN(C(=O)c2cc3cc(NS(C)(=O)=O)ccc3[nH]2)CC1 [Delavirdine] | – | – | – | – | 1 | 9 | -11 | – | – | Fibrin % cell toxicity (primary rat microglia [2]; [10]): 1%; Quadrant (FIG. 5b) [3, 11]: Q4
35 | Nc1ccc(/N=N/c2ccccc2)c(N)n1 [Phenazopyridine] | 6 | 0 | Q4 | 9 | 0 | – | – | – | – | –
